Laboratory results: patent US9156845B2, “4-(substituted amino)-7H-pyrrolo[2,3-d] pyrimidines as LRRK2 inhibitors” (Pfizer Inc., priority 2012, dated 2015)

How the values were obtained:
[1] = biological target: mutant G2019S LRRK2 (Homo sapiens (Human), UniProt Q5S007, G2019S); experiment: LRRK2 Lantha Screen kinase assay, mutant enzyme; format: biochemical; settings: geometric mean of 2-5 determinations unless otherwise indicated (a: >=6 determinations; b: single determination)
Description: (§1) LRRK2 kinase activity was measured using Lantha Screen technology from Invitrogen. GST-tagged truncated LRRK2 from Invitrogen (Cat # PV4874) was incubated with a fluorescein-labeled peptide substrate based upon ezrin/radixin/moesin (ERM), also known as LRRKtide (Invitrogen cat #PR8976A), in the presence of a dose response of compound. Upon completion, the assay was stopped and detected with a terbium labeled anti-phospho-ERM antibody (Invitrogen, cat #PR8975A). […] Aliquots (3.5 μL) of the 100% DMSO dose response were mixed with 46.5 μL water then 1 μL of this mixture was added to the 3 μL substrate mix in the 384-well plate. The kinase reaction was started with 3 μL of a working solution of LRRK2 enzyme at a concentration of 4 μg/mL. […] The reaction was allowed to progress at room temperature for two hours and then stopped with the addition of 7 μL of detection buffer (20 mM Tris pH 7.6, 0.01% NP-40, 0.02% NaN3, 6 mM EDTA with 2 nM terbium labeled anti-phospho-ERM).
All final concentrations of substrate ATP and enzyme were the same.

[2] = biological target: GST-tagged truncated LRRK2 (Homo sapiens (Human), UniProt Q5S007); experiment: LRRK2 Lantha Screen kinase assay; format: biochemical; settings: geometric mean of 2-5 determinations unless otherwise indicated (a: >=6 determinations; b: single determination); read-out: LRRK2 WT IC50
GST-tagged truncated LRRK2, sequence (Q5S007 970-2527): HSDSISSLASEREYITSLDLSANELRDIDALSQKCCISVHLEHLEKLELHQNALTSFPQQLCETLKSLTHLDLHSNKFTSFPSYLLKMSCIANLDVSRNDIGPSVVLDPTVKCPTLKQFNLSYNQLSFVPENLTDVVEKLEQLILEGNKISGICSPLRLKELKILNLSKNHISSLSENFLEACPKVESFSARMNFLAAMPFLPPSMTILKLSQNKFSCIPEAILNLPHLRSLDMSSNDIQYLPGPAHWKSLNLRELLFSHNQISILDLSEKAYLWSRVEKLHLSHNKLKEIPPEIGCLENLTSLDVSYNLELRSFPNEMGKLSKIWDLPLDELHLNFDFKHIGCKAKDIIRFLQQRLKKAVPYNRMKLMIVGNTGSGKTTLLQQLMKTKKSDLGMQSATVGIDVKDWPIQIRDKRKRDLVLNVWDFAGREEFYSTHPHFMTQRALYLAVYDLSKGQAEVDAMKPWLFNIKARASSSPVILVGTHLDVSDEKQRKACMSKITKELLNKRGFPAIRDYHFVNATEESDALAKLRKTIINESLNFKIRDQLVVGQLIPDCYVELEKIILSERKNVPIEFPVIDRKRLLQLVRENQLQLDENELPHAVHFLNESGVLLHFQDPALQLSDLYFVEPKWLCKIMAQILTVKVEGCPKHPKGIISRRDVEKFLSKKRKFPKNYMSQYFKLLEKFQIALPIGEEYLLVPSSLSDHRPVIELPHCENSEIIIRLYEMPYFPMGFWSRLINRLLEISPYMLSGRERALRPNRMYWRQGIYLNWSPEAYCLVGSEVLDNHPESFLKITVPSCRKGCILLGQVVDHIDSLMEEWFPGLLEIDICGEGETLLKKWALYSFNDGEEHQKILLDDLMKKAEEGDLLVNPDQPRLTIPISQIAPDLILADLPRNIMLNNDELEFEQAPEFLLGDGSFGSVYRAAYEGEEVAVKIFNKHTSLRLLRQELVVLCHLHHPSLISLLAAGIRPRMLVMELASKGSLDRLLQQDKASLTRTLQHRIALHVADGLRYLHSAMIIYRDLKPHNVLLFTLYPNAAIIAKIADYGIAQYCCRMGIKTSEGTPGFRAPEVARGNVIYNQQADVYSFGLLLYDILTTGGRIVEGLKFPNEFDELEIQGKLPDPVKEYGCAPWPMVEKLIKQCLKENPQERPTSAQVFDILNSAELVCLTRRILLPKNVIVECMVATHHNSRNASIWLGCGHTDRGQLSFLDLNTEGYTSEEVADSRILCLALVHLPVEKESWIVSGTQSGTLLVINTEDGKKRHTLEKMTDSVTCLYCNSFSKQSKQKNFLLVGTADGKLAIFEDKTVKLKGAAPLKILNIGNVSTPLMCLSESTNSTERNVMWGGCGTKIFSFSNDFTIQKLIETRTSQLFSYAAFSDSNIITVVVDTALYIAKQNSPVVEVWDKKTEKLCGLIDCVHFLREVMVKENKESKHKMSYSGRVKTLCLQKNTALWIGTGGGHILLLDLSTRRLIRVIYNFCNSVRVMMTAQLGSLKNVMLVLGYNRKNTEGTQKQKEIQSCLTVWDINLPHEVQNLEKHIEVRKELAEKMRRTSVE
Description: as §1

mutant G2019S LRRK2, sequence (Q5S007 970-2527 G2019S): as the sequence (Q5S007 970-2527) above, with G1050S counted along it

Compound	IC50 [1] [nM]	IC50 [2] [nM]
CC1CCN(c2ncnc3[nH]cc(-c4cccc(C#N)c4)c23)C1 (single isomer, unassigned) [Example 71]	102	21
COc1ccc(C#N)cc1-c1c[nH]c2ncnc(N3CCOCC3)c12 [Example 115, 4-methoxy-3-[4-(morpholin-4-yl)-7H-pyrrolo[2,3-d]pyrimidin-5-yl]benzonitrile]	121	48
Cn1cc(-c2c[nH]c3ncnc(N4CCC(F)CC4)c23)cn1 [Example 81, 4-(4-fluoropiperidin-1-yl)-5-(1-methyl-1H-pyrazol-4-yl)-7H-pyrrolo[2,3-d]pyrimidine]	50	36
COc1ccc(C#N)cc1-c1c[nH]c2ncnc(N3C[C@H](C)C[C@H](C)C3)c12 [Example 65, 3-[4-(3,5-cis-dimethylpiperidin-1-yl)-7H-pyrrolo[2,3-d]pyrimidin-5-yl]-4-methoxybenzonitrile]	176	85
COc1cccc(-c2c[nH]c3ncnc(N4CCOCC4)c23)c1 [Example 97, 5-(3-methoxyphenyl)-4-(morpholin-4-yl)-7H-pyrrolo[2,3-d]pyrimidine]	46	28
N#Cc1cccc(-c2c[nH]c3ncnc(N4CCOCC4)c23)n1 [Example 3, 6-[4-(Morpholin-4-yl)-7H-pyrrolo[2,3-d]pyrimidin-5-yl]pyridine-2-carbonitrile]	26	9
C[C@H]1CCCN(c2ncnc3[nH]cc(-c4cccc(C(N)=O)c4)c23)C1 [Example 60, 3-{4-[(3S)-3-methylpiperidin-1-yl]-7H-pyrrolo[2,3-d]pyrimidin-5-yl}benzamide]	58	86
C[C@H]1CCCN(c2ncnc3[nH]cc(-c4cccc(O)c4)c23)C1 [Example 58, 3-{4-[(3S)-3-methylpiperidin-1-yl]-7H-pyrrolo[2,3-d]pyrimidin-5-yl}phenol]	12	9
Clc1ccccc1-c1c[nH]c2ncnc(N3CCOCC3)c12 [Example 95, 5-(2-chlorophenyl)-4-(morpholin-4-yl)-7H-pyrrolo[2,3-d]pyrimidine]	33	21
COc1ccc(F)cc1-c1c[nH]c2ncnc(N3CCOCC3)c12 [Example 94, 5-(5-fluoro-2-methoxyphenyl)-4-(morpholin-4-yl)-7H-pyrrolo[2,3-d]pyrimidine]	10	7
CN(C)c1ncnc2[nH]cc(-c3ccccc3)c12 [Example 68, N,N-dimethyl-5-phenyl-7H-pyrrolo[2,3-d]pyrimidin-4-amine]	39	63
N#Cc1cccc(-c2c[nH]c3ncnc(N4CCOC(c5cc[nH]n5)C4)c23)c1 (stereo not drawn) [Example 36, 3-{4-[2-(1H-pyrazol-3-yl)morpholin-4-yl]-7H-pyrrolo[2,3-d]pyrimidin-5-yl}benzonitrile]	238	43
N#Cc1cccc(-c2c[nH]c3ncnc(N4CCCC5(CNC(=O)C5)C4)c23)c1 (stereo not drawn) [Example 40, 3-[4-(3-oxo-2,7-diazaspiro[4.5]dec-7-yl)-7H-pyrrolo[2,3-d]pyrimidin-5-yl]benzonitrile]	119	35
COc1ccccc1-c1c[nH]c2ncnc(N3CCOCC3)c12 [Example 101, 5-(2-methoxyphenyl)-4-(morpholin-4-yl)-7H-pyrrolo[2,3-d]pyrimidine]	23	14
COc1ccc(C#N)cc1-c1c[nH]c2ncnc(N3CCCC(C)C3)c12 (stereo not drawn) [Example 23, 4-methoxy-3-[4-(3-methylpiperidin-1-yl)-7H-pyrrolo[2,3-d]pyrimidin-5-yl]benzonitrile]	46	25
CC1(C)CCCN(c2ncnc3[nH]cc(-c4cccc(C#N)c4)c23)C1 [Example 11, 3-[4-(3,3-dimethylpiperidin-1-yl)-7H-pyrrolo[2,3-d]pyrimidin-5-yl]benzonitrile]	325	90
N#Cc1cccc(-c2c[nH]c3ncnc(N4CCCC(F)C4)c23)c1 (stereo not drawn) [Example 61, 3-[4-(3-fluoropiperidin-1-yl)-7H-pyrrolo[2,3-d]pyrimidin-5-yl]benzonitrile]	80	12
C[C@@H]1C[C@H](C)CN(c2ncnc3[nH]cc(-c4cnn(C)c4)c23)C1 [Example 22, 4-(3,5-cis-dimethylpiperidin-1-yl)-5-(1-methyl-1H-pyrazol-4-yl)-7H-pyrrolo[2,3-d]pyrimidine]	16	16
C[C@H]1CCCN(c2ncnc3[nH]cc(-c4ccc5c(c4)CNC5=O)c23)C1 [Example 50, 5-{4-[(3S)-3-methylpiperidin-1-yl]-7H-pyrrolo[2,3-d]pyrimidin-5-yl}-2,3-dihydro-1H-isoindol-1-one]	33	33
Cn1cc(-c2c[nH]c3ncnc(N4CCSCC4)c23)cn1 [Example 119, 5-(1-methyl-1H-pyrazol-4-yl)-4-(thiomorpholin-4-yl)-7H-pyrrolo[2,3-d]pyrimidine]	51	71

More lines, now with the values ahead:

IC50 [1] [nM]	IC50 [2] [nM]	Compound
34	44	Cn1cc(-c2c[nH]c3ncnc(N4CCCC(O)C4)c23)cn1 (stereo not drawn) [Example 120, 1-[5-(1-methyl-1H-pyrazol-4-yl)-7H-pyrrolo[2,3-d]pyrimidin-4-yl]piperidin-3-ol]
11	13	COc1ccc(F)cc1-c1c[nH]c2ncnc(N(C)C)c12 [Example 183, 5-(5-fluoro-2-methoxyphenyl)-N,N-dimethyl-7H-pyrrolo[2,3-d]pyrimidin-4-amine]
351	97.8	C1=C(c2c[nH]c3ncnc(N4CCOCC4)c23)COCC1 [Example 199, 5-(5,6-Dihydro-2H-pyran-3-yl)-4-(morpholin-4-yl)-7H-pyrrolo[2,3-d]pyrimidine]
51	30	N#Cc1cccc(OCC2CN(c3ncnc4[nH]cc(-c5cccc(C#N)c5)c34)CCO2)c1 (stereo not drawn) [Example 137, 3-(4-{2-[(3-cyanophenoxy)methyl]morpholin-4-yl}-7H-pyrrolo[2,3-d]pyrimidin-5-yl)benzonitrile]
30	18	Cc1cncc(-c2c[nH]c3ncnc(N4CCOCC4)c23)c1 [Example 149, 5-(5-methylpyridin-3-yl)-4-(morpholin-4-yl)-7H-pyrrolo[2,3-d]pyrimidine]
136	49	N#Cc1cccc(-c2c[nH]c3ncnc(N4CCCC(C(N)=O)C4)c23)c1 (stereo not drawn) [Example 139, 1-[5-(3-cyanophenyl)-7H-pyrrolo[2,3-d]pyrimidin-4-yl]piperidine-3-carboxamide]
51	47	COc1ccc(F)c(Cl)c1-c1c[nH]c2ncnc(N3CCOCC3)c12 [Example 193, 5-(2-chloro-3-fluoro-6-methoxyphenyl)-4-(morpholin-4-yl)-7H-pyrrolo[2,3-d]pyrimidin]
79.3	30.6	NC(=O)c1cccc(-c2c[nH]c3ncnc(N4CCOCC4)c23)n1 [Example 215, 6-[4-(morpholin-4-yl)-7H-pyrrolo[2,3-d]pyrimidin-5-yl]pyridine-2-carboxamide]
27	31	Cn1cc(-c2c[nH]c3ncnc(N4CCCC(F)C4)c23)cn1 (stereo not drawn) [Example 123, 4-(3-fluoropiperidin-1-yl)-5-(1-methyl-1H-pyrazol-4-yl)-7H-pyrrolo[2,3-d]pyrimidine]
82	15	N#Cc1cccc(-c2c[nH]c3ncnc(N4CCCC4)c23)c1F [Example 184, 2-fluoro-3-[4-(pyrrolidin-1-yl)-7H-pyrrolo[2,3-d]pyrimidin-5-yl]benzonitrile]
272	38	Cc1noc(C2CN(c3ncnc4[nH]cc(-c5cccc(C#N)c5F)c34)CCO2)n1 (stereo not drawn) [Example 166, 2-fluoro-3-{4-[2-(3-methyl-1,2,4-oxadiazol-5-yl)morpholin-4-yl]-7H-pyrrolo[2,3-d]pyrimidin-5-yl}benzonitrile]
62	58	COc1ccccc1-c1c[nH]c2ncnc(N3CCCC(O)C3)c12 (stereo not drawn) [Example 165, 1-[5-(2-methoxyphenyl)-7H-pyrrolo[2,3-d]pyrimidin-4-yl]piperidin-3-ol]
35	55	CN(C)c1ncnc2[nH]cc(-c3cnn(C)c3)c12 [Example 126, N,N-dimethyl-5-(1-methyl-1H-pyrazol-4-yl)-7H-pyrrolo[2,3-d]pyrimidin-4-amine]
46	44	COc1ccc(F)cc1-c1c[nH]c2ncnc(N3CCOC(c4noc(C)n4)C3)c12 (stereo not drawn) [Example 157, 5-(5-fluoro-2-methoxyphenyl)-4-[2-(5-methyl-1,2,4-oxadiazol-3-yl)morpholin-4-yl]-7H-pyrrolo[2,3-d]pyrimidine]
165	44	C[C@H]1COCCN1c1ncnc2[nH]cc(-c3cccc(C#N)c3)c12 [Example 153, 3-{4-[(3S)-3-methylmorpholin-4-yl]-7H-pyrrolo[2,3-d]pyrimidin-5-yl}benzonitrile]
37	8	N#Cc1cccc(-c2c[nH]c3ncnc(N4CCC[C@@H](O)C4)c23)c1 [Example 155, 3-{4-[(3R)-3-hydroxypiperidin-1-yl]-7H-pyrrolo[2,3-d]pyrimidin-5-yl}benzonitrile]
90	43	Cc1ccnc(-c2c[nH]c3ncnc(N4CCOCC4)c23)c1 [Example 188, 5-(4-methylpyridin-2-yl)-4-(morpholin-4-yl)-7H-pyrrolo[2,3-d]pyrimidine]
27	40	COc1cccc(F)c1-c1c[nH]c2ncnc(N(C)C)c12 [Example 189, 5-(2-fluoro-6-methoxyphenyl)-N,N-dimethyl-7H-pyrrolo[2,3-d]pyrimidin-4-amine]
475	129	c1cc(-c2ncon2)cc(-c2c[nH]c3ncnc(N4CCOCC4)c23)c1 [Example 201, 4-(Morpholin-4-yl)-5-[3-(1,2,4-oxadiazol-3-yl)phenyl]-7H-pyrrolo[2,3-d]pyrimidine]
